Data set [1] can be described thus: Solubility of powder compositions of aprepitant at 25° C. in water (HPLC method). The class given is physicochemical. Particulars: thermodynamic from solid. The protocol:
Solubility of Powder Compositions of Aprepitant at 25° C. in Water
• A. Aprepitant: Neat aprepitant was passed through a BSS # 80 mesh sieve, and its solubility in water was determined using a HPLC method. • B. Aprepitant: PVP K30 (1:1 w/w) solid dispersion: 2 g aprepitant and 2 g PVP K 30 were dissolved in a mixture of 200 ml dichloromethane and 20 ml methanol. This solution was dried in a rotary flash evaporator at 50° C. The dried solid dispersion was passed through a BSS # 80 mesh sieve. • C. Premix of A and B (1:6 w/w): Neat aprepitant and solid dispersion from B was mixed in the weight proportions of 1:6. This mixture was passed through a BSS # 80 mesh sieve. • D. Premix of A and B (1:2 w/w): Neat aprepitant and solid dispersion from B was mixed in the weight proportions of 1:2. This mixture was passed through a BSS # 80 mesh sieve. • E. Premix of A and B (3:2 w/w): Neat aprepitant and solid dispersion from B was mixed in the weight proportions of 3:2. This mixture was passed through a BSS # 80 mesh sieve. • F. Aprepitant: Polysorbate 80 (1:1 w/w): 1 g aprepitant and 1 g polysorbate 80 were mixed together by trituration. […]
Injected blank once, standard solution, all sample preparations in different pH solutions each twice into the chromatographic system. Aprepitant solubility in mg/ml was calculated using following formula: […]

For data set [2] the following is noted: cited from earlier work.
For data set [3] the following is noted: cited from earlier work. This is another data set of the same source.
The conditions of data set [4]: U.S. Pat. Nos. 6,096,742 and 6,583,142; cited from earlier work.

Converted amounts (≈) assume the structure as drawn.

In data set [1], `C[C@@H](O[C@H]1OCCN(Cc2n[nH]c(=O)[nH]2)[C@H]1c1ccc(F)cc1)c1cc(C(F)(F)F)cc(C(F)(F)F)c1` [A, Aprepitant] gave a solubility of 0.5 µg/mL (≈ 0.936 µM).
As to `C[C@@H](O[C@H]1OCCN(Cc2n[nH]c(=O)[nH]2)[C@H]1c1ccc(F)cc1)c1cc(C(F)(F)F)cc(C(F)(F)F)c1` [Aprepitant, 5-[[(2R,3S)-2-[(1R)-1-[3,5-bis(trifluoromethyl)phenyl]ethoxy]-3-(4-fluorophenyl)-4-morpholinyl]methyl]-1,2-dihydro-3H-1,2,4-triazol-3-one], in data set [2], the permeability characteristics result is “poor permeability”. Also, the “solubility in acetonitrile (descriptive)” value in data set [3] (acetonitrile) is “slightly soluble”. The “solubility in ethanol (descriptive)” value in data set [3] (ethanol) is on record as “sparingly soluble”. Moreover, the “solubility in isopropyl acetate (descriptive)” value in data set [3] (isopropyl acetate) is “sparingly soluble”. Moreover, the “solubility in water (descriptive)” value in data set [3] (water) is listed as “practically insoluble”.
For the compound `C[C@@H](O[C@H]1OCCN(Cc2n[nH]c(=O)[nH]2)[C@H]1c1ccc(F)cc1)c1cc(C(F)(F)F)cc(C(F)(F)F)c1` [Form I, aprepitant], in data set [4], the “solubility relative to Form II” value is reported as “lower solubility as compared to Form II” and the “thermodynamic stability relative to Form II” value was “thermodynamically more stable than Form II”.

The values above are taken from patent publication US20090209541A1, “APREPITANT COMPOSITIONS” (Dr. Reddy's Laboratories Ltd., priority 2006, published 2009).
